Test [1] has as its target T1, γ-secretase (Homo sapiens, UniProt P49768).
T1 construct: endogenous in cells
Kind of test: In vitro γ-secretase activity assay, Aβ40 production (ECL). In kind it is biochemical. The procedure: (§1) FIG. 2. In vitro characterization of coumarin-dimer allosteric GSIs against various γ-secretase cleavage products. The potency of 7 unique coumarin-based γ-secretase inhibitors were evaluated for efficacy against γ-secretase-mediated production of Aβ40, Aβ42, Aβ38, and Notch. Additionally, the pan-GSI Compound E was also examined in these assays. The IC50 values were calculated from the dose response curves using a non-linear regression analysis in Prism software. IC50 values are presented with standard deviation (n=3 for each data point). The three β-amyloid-detection in vitro assays were modified from our previously reported assay (21) using a biotinylated substrate that eliminated the requirement of anti-β-amyloid biotinylated antibody. Ruthenylated antibodies that detected the -40, -42, or -38 cleavage site were incorporated to detect proteolysis indicative of γ-secretase activity. In vitro Notch assay utilized a recombinant transmembrane portion of the Notch peptide and anti-Notch1 SM320 antibody in conjunction with ruthenylated anti-rabbit secondary antibodies. Electrochemiluminescence was quantified on an Analyzer (BioVeris). The selectivity ratio for Aβ42 inhibition over Aβ40 and Notch are indicated in the two far right columns.
The assay protocol employed was a modified version of that described in Li et al., 2000, Proc. Nat'l Acad. Sci. USA 97:6183-643, incorporated herein by reference. Briefly, recombinant peptide substrate was incubated with γ-secretase (40 μg/ml) in the presence or absence of test compound. The reaction mixture contained 0.25% CHAPSO, 0.1 μg/μl BSA, protease inhibitor, 50 mM PIPES, pH 7.0, 5 mM MgCl2, 5 mM CaCl2 and 150 mM KCl. The reaction was incubated for 2.5 hr at 37° C. and stopped by adding RIPA buffer (150 mM NaCl, 1.0% NP-40, 0.5% sodium deoxycholate, 0.1% SDS, 50 mM Tris HCl, pH 8.0). The products were detected with various antibody combinations using electrochemiluminescence (ECL) technology as previously described in Li et al., 2000, Proc. Nat'l Acad. Sci. USA 97:6183-643; Lai et al., 2003, J. Biol. Chem. 278: 22475-22481; and Yin et al., 2007, J. Biol. Chem. 282:23639-23644. The amount of product was determined using synthetic peptide or recombinant standards.
(§2) Cell membranes and solubilized γ-secretase were prepared as described previously (36). The in vitro and cell γ-secretase assays detecting either Aβ38, Aβ40, or Aβ42 cleavage were performed similar as previously described (21, 36). Cleaved product was detected using ruthenylated antibodies that recognize specific APP cleavage sites (Aβ31-38*, G2-10*, or G2-11* antibody for Aβ38, Aβ40, or Aβ42 respectively). The Km and Vmax in the presence and absence of γ-secretase inhibitors were analyzed by non-linear curve fit using the software SigmaPlot 8.0 with the Michaelis-Menten equation (v=Vm [S]/(Km+[S]; v: initial rate; Vm: maximum velocity; Km: the Michaelis-Menten constant, S: substrate).

The target of test [2] is T1, γ-secretase. Put plainly: In vitro γ-secretase activity assay, Aβ42 production (ECL). In kind it is biochemical. The conditions noted are these: in vitro inhibition of γ-secretase activity that generates Aβ42; 2.5 hr at 37° C., ECL detection. As to the method: as §1, with “The potency of 7 unique coumarin-based γ-secretase inhibitors were evaluated for efficacy against γ-secretase-mediated production of Aβ40, Aβ42, Aβ38, and Notch. Additionally, the pan-GSI Compound E was also examined in these assays.” left out, “IC50 values are presented with standard deviation (n=3 for each data point).” left out, “(BioVeris).” for “(BioVeris). The selectivity ratio for Aβ42 inhibition over Aβ40 and Notch are indicated in the two far right columns.”
Briefly, recombinant peptide substrate was incubated with γ-secretase (40 μg/ml) in the presence or absence of test compound. […] The reaction was incubated for 2.5 hr at 37° C. and stopped by adding RIPA buffer (150 mM NaCl, 1.0% NP-40, 0.5% sodium deoxycholate, 0.1% SDS, 50 mM Tris HCl, pH 8.0). […] The amount of product was determined using synthetic peptide or recombinant standards.
as §2

The subject of test [3] is cells stably transfected with APP. Kind of test: Cell-based assay for production of Aβ38, Aβ40 and Aβ42 peptides (Example 29, FIG. 1). The conditions noted are these: increasing concentrations of compound. As to the method: The following cell-based assay can be used for assessing inhibitory activity of test compounds on γ-secretase activity on APP expressed in stably transfected cells. Cells such as HEK239 or N2A cells that stably express APP are incubated 24-48 hr. in medium to which is added γ-secretase with or without test compound. The conditioned medium is collected. Secreted Aβ peptides are detected by electrochemiluminescence (ECL) technology as previously described, for example, in Li et al., 2000, Proc. Nat'l Acad. Sci. USA 97:6183-643; Lai et al., 2003, J. Biol. Chem. 278: 22475-22481; and Yin et al., 2007, J. Biol. Chem. 282:23639-23644. Concentration of Aβ peptides can be calculated from standard curves that are generated using synthetic peptides using the ECL assay.
Results of a cell-based assay are provided in FIG. 1 in which cells stably transfected with APP were incubated in medium containing γ-secretase activity and the indicated amounts of compound 37.

The target in a further test is T2, γ-secretase active site (Homo sapiens, UniProt P49768).
T2 construct: endogenous in cells; host or cells: HeLa membrane
Kind of test: Photolabeling of the γ-secretase active site (PS1-NTF) in HeLa membrane with probes L646, GY4, JC8, L505. The test is classed as binding. The settings on record: L458 and Compound E at 2 μM, CS-1 up to 100 μM. As to the method: FIG. 4. Kinetic analysis of allosteric GSIs and evaluation of their effect on the γ-secretase active site architecture. (a) Kinetic analysis of CS1 was performed using our modified version of a previously reported in vitro γ-secretase activity assay. The inhibition kinetics were analyzed by using a non-linear curve fit with the Michaelis-Menten equation. Upper right inset: we replotted slopes against the inhibitor concentrations after performing double reciprocal conversion. (b) Schematic representation of the allosteric binding of the di-coumarin compounds to γ-secretase. This binding ultimately causes an alteration at the active site of γ-secretase. Black rectangle represents the coumarin-dimer compound. (c) The binding of L458 to the active site of γ-secretase and its interaction at various subpockets within the enzyme. (d) Chemical structure of the four photoaffinity probes utilized in the characterization of CS-1 effect on active site architecture. Hydroxyethylamine and benzophenone moieties are marked by blue and red, respectively. (e) Evaluation of CS-1 effect on the photolabeling of four probes. […] (f) Evaluation of CS-2 effect on the active site photolabeling by L505 and GY4. (g) Effect of Compound E on active site photolabling. […] Blotting was performed for PS1-NTF. The photolabeling blots are representative and were performed in triplicate.
We hypothesized that the allosteric binding of the di-coumarin compounds alters the conformation of the active site of γ-secretase and thereby preferentially affects the Aβ42 site cleavage (FIG. 4b). This raised the technical issue of how to probe the contours of the enzymatic active site. Although the structure of γ-secretase has been determined by cryoelectron microscopy (23), the resolution attained is not sufficient to investigate subtle changes within the active site. Consequently, we developed a series of active-site directed inhibitors that incorporate a photoreactive benzophenone entity into varied positions. Using these photoreactive probes, we assessed the effect of the di-coumarin inhibitor binding on the active site of γ-secretase. Since the efficiency of photoinsertion depends on the orientation of the probe and the proximity of residues within the active site, conformational change of the active site can alter the orientation of the probe and contact residues and lead to altered cross-linking efficiencies. Therefore, multiple photoactivatable, active-site directed GSIs will provide a practical approach to evaluate the changes within the active site following allosteric di-coumarin binding.
L458 contains a hydroxyethylamine transition-state isostere that mimics the tetrahedral intermediate of aspartyl proteases and this moiety hydrogen bonds with the catalytic aspartate residues of γ-secretase (20). According to the nomenclature of Schechter and Berger (24), L458 contains the P2, P1, P1′, P2′ and P3′ residues that putatively bind to the S2, S1, S1′, S2′ and S3′ subsites, respectively, within the active site of γ-secretase (FIG. 4c). We have developed a series of biotinylated, photoactivatable inhibitors based on the core structure of L458 that allow us to probe the sub-pockets of the γ-secretase active site (3, 25-26). These inhibitors all have an individual benzophenone group incorporated into L458 at either the P2, P1, P1′, or P3′ position and are referred to as L646, GY4, JC8 and L505 (FIG. 4d). Each of these inhibitors interacts and labels the S2, S1, S1′, and S3′ subsites, respectively, within the γ-secretase complex (FIG. 4c-d).
HeLa membrane was incubated with CHAPSO detergent and photoaffinity probe in the presence or absence of excess L458 or CS-1. Labeled presenilin was isolated using streptavidin beads, separated by SDS-PAGE and subsequently western blotted using anti-PS1-NTF antibodies. Again, presenilin is believed to contain the active site of γ-secretase, therefore we examined PS1 photolabeling. […]

Test [4] concerns the target T1, γ-secretase. Kind of test: Inhibition kinetic analysis in the in vitro γ-secretase activity assay. The conditions noted are these: APP-transmembrane domain substrate. In kind it is biochemical. The procedure: FIG. 4. Kinetic analysis of allosteric GSIs and evaluation of their effect on the γ-secretase active site architecture. (a) Kinetic analysis of CS1 was performed using our modified version of a previously reported in vitro γ-secretase activity assay. The inhibition kinetics were analyzed by using a non-linear curve fit with the Michaelis-Menten equation. Upper right inset: we replotted slopes against the inhibitor concentrations after performing double reciprocal conversion. (b) Schematic representation of the allosteric binding of the di-coumarin compounds to γ-secretase. This binding ultimately causes an alteration at the active site of γ-secretase. Black rectangle represents the coumarin-dimer compound. (c) The binding of L458 to the active site of γ-secretase and its interaction at various subpockets within the enzyme. […]
Cell membranes and solubilized γ-secretase were prepared as described previously (36). […] Cleaved product was detected using ruthenylated antibodies that recognize specific APP cleavage sites (Aβ31-38*, G2-10*, or G2-11* antibody for Aβ38, Aβ40, or Aβ42 respectively). The Km and Vmax in the presence and absence of γ-secretase inhibitors were analyzed by non-linear curve fit using the software SigmaPlot 8.0 with the Michaelis-Menten equation (v=Vm [S]/(Km+[S]; v: initial rate; Vm: maximum velocity; Km: the Michaelis-Menten constant, S: substrate).

Test [5] deals with T1, γ-secretase. The settings on record: reference (22); cited from earlier work.
In test [6] the test system is N2a mouse neuroblastoma cells that stably express Swedish-mutated APP. Put plainly: Cell-based assay of secreted Aβ42, Aβ40, Aβ38 in APPsw-N2A cells. The conditions noted are these: 24 hrs, in words, CS-1 up to 30 μM. The procedure: FIG. 3. Cellular evaluation of the coumarin-dimer CS-1 and its selective inhibition of Aβ42. Compounds were incubated with the APPsw-N2A mouse neuroblastoma cells for 24 hours and media were analyzed by biotinylated 4G8 and ruthenylated antibodies specific for each respective cleavage product. […] (d) Immunoprecipitation mass spectrometry analysis of CS-1 effect on secreted β-amyloid species. Aβ peptides were immunoprecipitated using 4G8 antibody and isolated with Protein G+/A agarose beads. Samples were analyzed by MALDI-MS. Samples shown are representative and each data point was performed in triplicate. (e) Cell-based Notch cleavage assay. HEK-293 cells were transfected with ΔE Notch construct and then Compound E and CS-1 were evaluated for their ability to inhibit γ-secretase-mediated Notch intracellular domain production. […] Western blot is representative and was performed in triplicate. (f) Effect of CS-1 on AICD production. N2A APPsw cell membrane was prepared and incubated with the indicated concentrations of CS-1 at 37° C. for 2 hours. The generated AICD and APP-CTFs were detected by Western Blotting using APPc antibody. Western blot is representative and was performed in triplicate.
We next set out to determine if the selective inhibition of Aβ42 was maintained in a cell-based system for APP processing. First, we compared our lead compound CS-1 (FIG. 3a) to Compound E (FIG. 3b) and the GSM compound indomethacin (FIG. 3c). N2a mouse neuroblastoma cells that stably express Swedish-mutated APP substrate were treated with the indicated compounds for 24 hrs at 37° C. Following 24 hr incubation period, the medium was collected from the cells and assayed for secreted Aβ42, Aβ40, and Aβ38. […] The result for indomethacin mirrored those findings by Kukar et al. whereby a different cell-based system was utilized (17), further validating our assay system for analysis of these Aβ species. […] This may reflect subtle variations between the cellular and in vitro conformations of γ-secretase. Nevertheless, the cell-based studies confirmed that CS-1 maintains a preference for inhibition of the γ-secretase mediated production of Aβ42 over Aβ40 or Aβ38, which is distinct to previously reported GSMs (17) and inhibitors (14-15, 18).
as §2

The text below walks through data of patent US20150133493A1, “COUMARIN-BASED COMPOUNDS FOR THE TREATMENT OF ALZHEIMER'S DISEASE AND CANCER” (Sloan-Kettering Institute for Cancer Research, priority 2008, published 2015).

“Also recorded” adds a separate entry of the source.

As to `O=c1oc2ccccc2c(O)c1C(c1cc(F)c(F)c(F)c1)c1c(O)c2ccccc2oc1=O` [Compound 37], the IC50 (as a rule, the midpoint of a concentration-inhibition curve) at γ-secretase [1] (in vitro inhibition of γ-secretase activity that generates Aβ40, 2.5 hr at 37° C., ECL detection) came out at 0.6 µM. At γ-secretase [1] (ratio of IC50 for Aβ40 to IC50 for Aβ42), the Aβ40/Aβ42 ratio was 3.0. Further, the IC50 at γ-secretase [2] is 0.2 µM. For the same compound, in test [3], the “amount of Aβ38 secreted from the cells” value is “remain relatively constant”, the “amount of Aβ40 secreted from the cells” value was “remain relatively constant” and the “amount of Aβ42 secreted from the cells” value is “decrease”.
Turning to `CC(C)C[C@H](NC(=O)[C@H](Cc1ccccc1)C[C@@H](O)[C@H](Cc1ccccc1)NC(=O)OC(C)(C)C)C(=O)N[C@@H](Cc1ccccc1)C(N)=O` [L-685,458], on γ-secretase active site, the “effect on JC-8 photolabeling of PS1-NTF (S1′ subsite)” value is listed as “completely blocked” and the “effect on L646 photolabeling of PS1-NTF (S2 subsite)” value is given as “completely blocked”. In addition, on γ-secretase active site (CS-2 at 100 μM), the “effect on GY-4 photolabeling of PS1-NTF (S1 subsite)” value was “completely blocked” and the “effect on L505 photolabeling of PS1-NTF (S3′ subsite)” value is on record as “completely blocked”. Further, the “mode of inhibition against APP-TM substrate” value at γ-secretase [4] is on record as “competitive inhibitor”. The “mode of inhibition when the C100 substrate is used” value at γ-secretase [5] is “non-competitive inhibitor”.
Take `COc1ccc2c(c1)c(CC(=O)O)c(C)n2C(=O)c1ccc(Cl)cc1` [indomethacin]: in test [6], the “effect on secreted Aβ38 production” value was “potently increases; also recorded: significantly enhanced”, the “effect on secreted Aβ40 production” value is recorded as “little effect; also recorded: no effect” and the “effect on secreted Aβ42 production” value was “reduces; also recorded: abrogated”.
